Patent publication US20250059182A1, “SOS1 INHIBITORS” (Mirati Therapeutics, Inc., priority 2021, published 2025)
Where a name gives a salt, the structure may show the parent alone. Read-outs that look alike come from different tables or passages of the source.

Legend:
[1] = molecular target: T1, recombinant human SOS1 polypeptide (amino acids 560-1049) (Homo sapiens, UniProt Q07889); assay: HTRF displacement assay: inhibition of labeled tracer binding to SOS1
T1 construct: corresponding to amino acids 560-1049, expressed in E. Coli; made in house; host or cells: E. coli
T1 sequence (Q07889 560-1049): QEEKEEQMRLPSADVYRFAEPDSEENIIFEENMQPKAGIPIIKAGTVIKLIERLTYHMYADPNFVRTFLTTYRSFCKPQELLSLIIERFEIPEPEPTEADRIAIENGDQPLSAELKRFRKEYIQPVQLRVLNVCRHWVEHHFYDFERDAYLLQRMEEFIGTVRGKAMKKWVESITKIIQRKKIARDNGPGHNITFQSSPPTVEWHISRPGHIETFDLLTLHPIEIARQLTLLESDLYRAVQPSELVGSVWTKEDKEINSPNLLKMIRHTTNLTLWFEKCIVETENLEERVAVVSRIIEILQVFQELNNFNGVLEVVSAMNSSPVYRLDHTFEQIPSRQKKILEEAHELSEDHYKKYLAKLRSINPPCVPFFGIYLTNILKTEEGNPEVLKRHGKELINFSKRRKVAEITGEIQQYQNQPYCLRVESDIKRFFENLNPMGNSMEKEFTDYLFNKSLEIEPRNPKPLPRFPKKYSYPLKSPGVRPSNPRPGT

pERK in MKN1 cells = assay: pERK inhibition, In-Cell Western (LI-COR Odyssey), MKN1 cells; type: cell-based; details: Homo sapiens
How it was run: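 IC50 was fitted from % pERK inhibition, calculated as the GAPDH-normalised pERK signal of each well divided by the vehicle mean. Signal was imaged at 700 and 800 nm after fixation, methanol permeabilisation and dual antibody staining. Before fixation, MKN1 cells had received compound for about 0.5–1 h at 37 °C, top concentration 10 µM, nine 3-fold dilutions.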

[2] = Table A, Morrison equation for competitive binding
[3] = MKN-1, Table B, MKN1 or H358 cells (table does not say which), 0.5-1 hour incubation, read-out: IC50 (nM), pERK inhibition
[4] = Table A1, Morrison equation for competitive binding
[5] = MKN-1, Table B1, MKN1 or H358 cells (table does not say which), 0.5-1 hour incubation, read-out: IC50 (nM), pERK inhibition

Structure (SMILES) | Ki [1, 2] | IC50 (pERK in MKN1 cells; [3]) | Ki [1, 4] | IC50 (pERK in MKN1 cells; [5]) | IC50 (pERK in MKN1 cells; MKN-1, read-out: IC50 (nM), pERK inhibition)
Cc1c([C@@H](C)Nc2nnc(C)c3cc(F)c(N4CCOCC4)cc23)cc(N)nc1C(F)(F)F [Example 4-22, (R)-N-(1-(6-amino-3-methyl-2-(trifluoromethyl)pyridin-4-yl)ethyl)-6-fluoro-4-methyl-7-morpholinophthalazin-1-amine] | 22 nM | 49 nM | – | – | –
Cc1nnc(N[C@H](C)c2cccc(C(F)(F)F)c2F)c2cc(N(C)C3CCN(C)CC3)c(F)cc12 [Example 4-23, (R)-6-fluoro-N^1-(1-(2-fluoro-3-(trifluoromethyl)phenyl)ethyl)-N^7,4-dimethyl-N^7-(1-methylpiperidin-4-yl)phthalazine-1,7-diamine] | 1.2 nM | 25 nM | – | – | –
Cc1c(C#N)cccc1[C@@H](C)Nc1nnc(N2CC[C@@H](N)C2)c2cnc(N3C[C@H]4C[C@@H]3CO4)cc12 [Example 5-1, 3-((R)-1-((4-((R)-3-aminopyrrolidin-1-yl)-7-((1R, 4R)-2-oxa-5-azabicyclo[2.2.1]heptan-5-yl)pyrido[3,4-d]pyridazin-1-yl)amino)ethyl)-2-methylbenzonitrile] | 0.505 nM | 1320 nM | – | – | –
Cc1c(C#N)cccc1[C@@H](C)Nc1nnc(N2CC[C@@H](N(C)C)C2)c2cnc(N3C[C@H]4C[C@@H]3CO4)cc12 [Example 5-2, 3-((R)-1-((7-((1R, 4R)-2-oxa-5-azabicyclo[2.2.1]heptan-5-yl)-4-((R)-3-(dimethylamino)pyrrolidin-1-yl)pyrido[3,4-d]pyridazin-1-yl)amino)ethyl)-2-methylbenzonitrile] | 0.973 nM | 115 nM | – | – | –
Cc1c(C#N)cccc1[C@@H](C)Nc1nnc(CN(C)C)c2cnc(N3CC4(COC4)C3)cc12 [Example 6-1, (R)-3-(1-((4-((dimethylamino)methyl)-7-(2-oxa-6-azaspiro[3.3]heptan-6-yl)pyrido[3,4-d]pyridazin-1-yl)amino)ethyl)-2-methylbenzonitrile] | 18.3 nM | 171 nM | – | – | –
COc1cc2c(C)nnc(N[C@H](C)c3cccc(C#N)c3C)c2cc1OC [Example 6-7, (R)-3-(1-((6,7-dimethoxy-4-methylphthalazin-1-yl)amino)ethyl)-2-methylbenzonitrile] | 14.5 nM | 177 nM | – | – | –
Cc1c(C#N)cccc1[C@@H](C)Nc1nnc(C)c2cnc(C3CCN(C)CC3)cc12 [Example 6-14, (R)-2-methyl-3-(1-((4-methyl-7-(1-methylpiperidin-4-yl)pyrido[3,4-d]pyridazin-1-yl)amino)ethyl)benzonitrile] | 8.89 nM | 468 nM | – | – | –
Cc1nnc(N[C@H](C)c2cccc(C(F)(F)F)c2F)c2cc(N3CCN(C)CC3)c(C#N)cc12 [Example 6-17, (R)-1-((1-(2-fluoro-3-(trifluoromethyl)phenyl)ethyl)amino)-4-methyl-7-(4-methylpiperazin-1-yl)phthalazine-6-carbonitrile] | 2.29 nM | 139 nM | – | – | –
Cc1nnc(N[C@H](C)c2cccc(C(F)(F)F)c2F)c2cc(N3CCOCC3)c(C#N)cc12 [Example 6-18, (R)-1-((1-(2-fluoro-3-(trifluoromethyl)phenyl)ethyl)amino)-4-methyl-7-morpholinophthalazine-6-carbonitrile] | 7.06 nM | 311 nM | – | – | –
Cc1c(C#N)cccc1[C@@H](C)Nc1nnc(C)c2cc(C#N)c(N3CCN(C)CC3)cc12 [Example 6-19, (R)-1-((1-(3-cyano-2-methylphenyl)ethyl)amino)-4-methyl-7-(4-methylpiperazin-1-yl)phthalazine-6-carbonitrile] | 2.94 nM | 222 nM | – | – | –
Cc1nnc(N[C@H](C)c2cccc(C(F)(F)F)c2F)c2cc(N3C[C@H]4C[C@@H]3CO4)c(C#N)cc12 [Example 6-20, 7-((1R,4R)-2-oxa-5-azabicyclo[2.2.1]heptan-5-yl)-1-(((R)-1-(2-fluoro-3-(trifluoromethyl)phenyl)ethyl)amino)-4-methylphthalazine-6-carbonitrile] | 1.4 nM | 218 nM | – | – | –
Cc1c(C#N)cccc1[C@@H](C)Nc1nnc(C)c2cc(Cl)c(N3CCN(C)CC3)cc12 [Example 7-1, (R)-3-(1-((6-chloro-4-methyl-7-(4-methylpiperazin-1-yl)phthalazin-1-yl)amino)ethyl)-2-methylbenzonitrile] | 1.79 nM | 150 nM | – | – | –
Cc1c(C#N)cccc1[C@@H](C)Nc1nnc(C)c2cnc(N3CCCCC3)cc12 [Example P-3, (R)-2-methyl-3-(1-((4-methyl-7-(piperidin-1-yl)pyrido[3,4-d]pyridazin-1-yl)amino)ethyl)benzonitrile] | – | – | 2.22 nM | 302 nM | –
COC1(C)CCN(c2cc3c(N[C@H](C)c4cccc(C#N)c4C)nnc(C)c3cn2)CC1 [Example P-9, (R)-3-(1-((7-(4-methoxy-4-methylpiperidin-1-yl)-4-methylpyrido[3,4-d]pyridazin-1-yl)amino)ethyl)-2-methylbenzonitrile, formic acid salt] | – | – | 0.989 nM | – | 90.2 nM
COC1CCN(c2cc3c(N[C@H](C)c4cccc(C#N)c4C)nnc(C)c3cn2)CC1 [Example P-15, (R)-3-(1-((7-(4-methoxypiperidin-1-yl)-4-methylpyrido[3,4-d]pyridazin-1-yl)amino)ethyl)-2-methylbenzonitrile] | – | – | 1.12 nM | 66.1 nM | –
Cc1c(C#N)cccc1[C@@H](C)Nc1nnc(C)c2cnc(N3CCn4cnnc4C3)cc12 [Example P-21, (R)-3-(1-((7-(5,6-dihydro-[1,2,4]triazolo[4,3-a]pyrazin-7(8H)-yl)-4-methylpyrido[3,4-d]pyridazin-1-yl)amino)ethyl)-2-methylbenzonitrile] | – | – | 2.17 nM | 2560 nM | –
Cc1c(C#N)cccc1[C@@H](C)Nc1nnc(C)c2cnc(N3CCn4c(C)nnc4C3)cc12 [Example P-27, (R)-2-methyl-3-(1-((4-methyl-7-(3-methyl-5,6-dihydro-[1,2,4]triazolo[4,3-a]pyrazin-7(8H)-yl)pyrido[3,4-d]pyridazin-1-yl)amino)ethyl)benzonitrile] | – | – | 1.26 nM | > 10000 nM | –
Cc1c(C#N)cccc1[C@@H](C)Nc1nnc(C)c2cnc(N3CCn4c(nnc4C(F)(F)F)C3)cc12 [Example P-33, (R)-2-methyl-3-(1-((4-methyl-7-(3-(trifluoromethyl)-5,6-dihydro-[1,2,4]triazolo[4,3-a]pyrazin-7(8H)-yl)pyrido[3,4-d]pyridazin-1-yl)amino)ethyl)benzonitrile] | – | – | 6.92 nM | 121 nM | –
Cc1c(C#N)cccc1[C@@H](C)Nc1nnc(C)c2cnc(N3CCc4c(cnn4C)C3)cc12 [Example P-39, (R)-2-methyl-3-(1-((4-methyl-7-(1-methyl-1,4,6,7-tetrahydro-5H-pyrazolo[4,3-c]pyridin-5-yl)pyrido[3,4-d]pyridazin-1-yl)amino)ethyl)benzonitrile] | – | – | 1.1 nM | 96.9 nM | –
Cc1c(C#N)cccc1[C@@H](C)Nc1nnc(C)c2cnc(N3CCc4c(ncn4C)C3)cc12 [Example P-45, (R)-2-methyl-3-(1-((4-methyl-7-(1-methyl-1,4,6,7-tetrahydro-5H-imidazo[4,5-c]pyridin-5-yl)pyrido[3,4-d]pyridazin-1-yl)amino)ethyl)benzonitrile] | – | – | 0.777 nM | 176 nM | –
